Results reported in article PMC10518717, “High-Throughput Screening and Proteomic Characterization of Compounds Targeting Myeloid-Derived Suppressor Cells” (Molecular & Cellular Proteomics : MCP, 2023).

How the values were obtained:
Acyp1 = biological target: T1, Acyp1 (Mus musculus, UniProt P56376); assay: Solvent-induced protein precipitation profiling; assay type: binding; details: 7.8 μM and 26 μM; relative to compound 3 at 10 μM
T1 construct: We treated NUP-MDSC cell lysate with compound 2; endogenous in cells; host or cells: mouse NUP-MDSC (lysate)
T1 sequence (P56376 1-99): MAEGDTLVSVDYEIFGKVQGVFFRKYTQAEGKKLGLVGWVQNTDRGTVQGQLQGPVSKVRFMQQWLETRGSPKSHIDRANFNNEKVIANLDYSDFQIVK
Protocol: (§1) NUP-MDSCs were differentiated as described above, washed twice with PBS, resuspended in lysis buffer (PBS, 0.4% IGEPAL CA-630, 1× Halt Protease-Inhibitor Cocktail (Thermo Fisher Scientific)), and subjected to three freeze-thaw cycles. The lysate was cleared by centrifugation for 30 min at 18,000g and 4 °C. The soluble fraction was diluted to 4 mg/ml and allowed to warm up to room temperature. Equal volumes of lysate were treated in triplicates with 100 x compound stock solutions (in DMSO) or DMSO for 15 min at room temperature (final concentrations: cmpd 2: 7.8 μM (3xEC50) and 26 μM (10xEC50), cmpd 3: 10 μM and 26 μM). […]
(§2) Peptides were analyzed via LC-MS/MS on a Vanquish Neo UHPLC coupled to an Orbitrap Eclipse Tribrid mass spectrometer (Thermo Fisher Scientific). […] Samples were measured, employing a MS3 method with real-time search. […] To obtain quantitative information on TMT reporter ions, each peptide precursor was fragmented again as for MS2 analysis followed by synchronous selection of the up to 10 most intense peptide fragments in the iontrap ([37]) and further fragmentation via HCD using an NCE of 55%. […] The MS3 scan was recorded in the OT at 30,000 resolution (scan range 110–500 m/z, isolation window of 0.7 m/z, AGC of 2e4 charges, maxIT of 120 ms). […]

Cd74 = biological target: T2, Cd74 (Mus musculus, UniProt P04441); assay: Solvent-induced protein precipitation profiling; assay type: binding; details: 7.8 μM and 26 μM; relative to compound 3 at 10 μM
T2 construct: We treated NUP-MDSC cell lysate with compound 2; endogenous in cells; host or cells: mouse NUP-MDSC (lysate)
T2 sequence (P04441 1-279): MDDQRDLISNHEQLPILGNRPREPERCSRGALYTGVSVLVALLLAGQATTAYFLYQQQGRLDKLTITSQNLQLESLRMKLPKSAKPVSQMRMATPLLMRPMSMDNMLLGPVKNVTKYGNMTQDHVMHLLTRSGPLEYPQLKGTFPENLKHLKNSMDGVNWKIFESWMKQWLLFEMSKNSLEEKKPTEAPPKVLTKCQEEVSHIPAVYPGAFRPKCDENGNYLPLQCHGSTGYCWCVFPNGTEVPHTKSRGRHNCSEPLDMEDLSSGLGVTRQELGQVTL
Protocol: as §1, §2

## CCOC(=O)c1nnn(-c2nn3nnnc3c3ccccc23)c1C [compound 2]
Acyp1
  stabilization against solvent-induced aggregation of Acyp1: dose-dependent stabilization
Cd74
  stabilization against solvent-induced aggregation of Cd74: dose-dependent stabilization
